Laboratory results reported in publication PMC6268909 (Molecules, 2012).
pIC50: −log10 of the molar value. Values after ≈ are worked out from the molar mass of the structure shown. Counter-ions that a name gives are not always drawn. Like-named read-outs stand apart in the source and are kept apart here.

What was measured:
[1] = system: Ralstonia solanacearum ATCC 11696; assay: microbe, parasite or virus in culture; assay type: cell-based; conditions: ATCC11696, 24 h, read-out: IC50, antimicrobial activity, R. sol.
Bacillus megaterium = system: Bacillus megaterium; set-up: method as in earlier work; conditions: compound from endophytic fungus of Meliotus dentatus; cited from earlier work
[2] = system: Xanthomonas vesicatoria ATCC 11633; assay: microbe, parasite or virus in culture; assay type: cell-based; conditions: ATCC11633, 24 h, read-out: IC50, antimicrobial activity, X. ves.
[3] = system: methicillin-resistant S. aureus; conditions: cited from earlier work
Staphylococcus aureus = conditions: cited from earlier work
[4] = system: Cladosporium cladosporioides; set-up: method as in PMID 20158153; conditions: compound from endophytic Penicillium sp.; cited from earlier work
C. sphaerospermum = system: C. sphaerospermum; set-up: method as in PMID 20158153; conditions: compound from endophytic Penicillium sp.; cited from earlier work
[5] = system: Pseudomonas lachrymans ATCC 11921; assay: microbe, parasite or virus in culture; assay type: cell-based; conditions: ATCC11921, 24 h, read-out: IC50, antimicrobial activity, P. lach.
Microbotryum violacerum = system: Microbotryum violacerum; set-up: method as in earlier work; conditions: compound from endophytic fungus of Meliotus dentatus; cited from earlier work
Magnaporthe oryzae P131 = assay: microbe, parasite or virus in culture; assay type: cell-based; conditions: Pyricularia oryzae, read-out: IC50, antimicrobial activity, M. or.
[6] = molecular target: T1, acetylcholinesterase (AChE) (Homo sapiens, UniProt P22303); assay: biochemical
T1 construct: purchased Sigma-Aldrich (St. Louis, MO, USA)
T1 sequence (P22303 32-614, species assumed): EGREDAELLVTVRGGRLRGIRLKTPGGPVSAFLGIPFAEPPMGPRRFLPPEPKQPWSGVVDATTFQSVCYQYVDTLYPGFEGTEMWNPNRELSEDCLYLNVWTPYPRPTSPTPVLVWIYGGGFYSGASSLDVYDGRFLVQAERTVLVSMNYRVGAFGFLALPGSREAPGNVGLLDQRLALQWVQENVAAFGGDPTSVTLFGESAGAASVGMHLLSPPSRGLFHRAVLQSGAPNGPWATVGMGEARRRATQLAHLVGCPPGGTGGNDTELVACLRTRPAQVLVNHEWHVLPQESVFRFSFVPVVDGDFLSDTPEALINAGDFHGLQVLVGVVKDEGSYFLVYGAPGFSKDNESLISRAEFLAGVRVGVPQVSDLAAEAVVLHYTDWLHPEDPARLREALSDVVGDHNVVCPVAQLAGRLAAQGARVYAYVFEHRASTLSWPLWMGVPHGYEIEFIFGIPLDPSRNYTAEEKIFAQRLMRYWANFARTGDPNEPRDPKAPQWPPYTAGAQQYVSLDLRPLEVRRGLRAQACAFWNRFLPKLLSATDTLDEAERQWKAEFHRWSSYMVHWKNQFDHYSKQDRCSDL

[7] = system: Agrobacterium tumefaciens ATCC 11158; assay: microbe, parasite or virus in culture; assay type: cell-based; conditions: ATCC11158, 24 h, read-out: IC50, antimicrobial activity, A. tum.
[8] = system: Bacillus subtilis ATCC 11562; assay: microbe, parasite or virus in culture; assay type: cell-based; conditions: ATCC11562, 24 h, read-out: IC50, antimicrobial activity, B. sub.
[9] = system: human colon carcinoma cells; conditions: cited from earlier work
[10] = system: various cultured mammalian cells; conditions: cited from earlier work
Alternaria alternata = system: Alternaria alternata; set-up: method as in PMID 15787237; conditions: cited from earlier work
[11] = molecular target: acetycholinesterase (AChE); set-up: method as in PMID 15787237; conditions: previously reported; cited from earlier work

Row | SMILES | IC50 [1] [µg/mL] | antibacterial activity (Bacillus megaterium) | IC50 [2] [µg/mL] | MIC [3] [µg/mL] | MIC (Staphylococcus aureus) [µg/mL] | antifungal activity at concentration [4] [µg/mL] | antifungal activity at concentration (C. sphaerospermum) [µg/mL] | IC50 [5] [µg/mL] | antifungal activity (Microbotryum violacerum) | IC50 (Magnaporthe oryzae P131; P131, 7 h) [µg/mL] | pIC50 [6] | IC50 [7] [µg/mL] | IC50 [8] [µg/mL] | mitochondrial apoptosis [9] | IC50 (Magnaporthe oryzae P131; P131, 7 h at 25 °C) [µg/mL] | DNA strand breaks, micronuclei and gene mutations [10] | MIC (Alternaria alternata) [µg/mL] | IC50, acetycholinesterase (AChE) inhibitory activity [11] [µg/mL]
1 | CC1OC(=O)c2c(O)cccc2C1O (centres unmarked) [4,8-dihydroxy-3-methylbenzopyran-1-one] | 16.2 (≈ 83.6 µM) | strong antibacterial activity | 17.8 (≈ 91.7 µM) | 8 (≈ 41.2 µM) | 8 (≈ 41.2 µM) | 5.00 | 10.0 | 16.2 (≈ 83.3 µM) | antifungal activity | 113 (≈ 584 µM) | 3.22 | 18.2 (≈ 93.8 µM) | 19.2 (≈ 99 µM) | – | – | – | – | –
2 | COc1cc(O)c2c(=O)oc3cc(O)cc(C)c3c2c1 [Alternariol 9-methyl ether (3), 3,7-dihydroxy-9-methoxy-1-methyl-6H-dibenzo[b,d]pyran-6-one] | 29.2 (≈ 107 µM) | – | 30.1 (≈ 110 µM) | – | – | – | – | 27.1 (≈ 99.5 µM) | – | – | 3.30 | 28.8 (≈ 106 µM) | 34.3 (≈ 126 µM) | induce mitochondrial apoptosis | 123 (≈ 452 µM) | induce DNA strand breaks, micronuclei and gene mutations | – | –
3 | COC1=CC2(C)OC(=O)c3c(O)cc(OC)cc3C2=C(O)C1=O (centres unmarked) [Botrallin (4), 1,7-dihydroxy-3,9-dimethoxy-4a-methyl-6H-dibenzo[b,d]pyran-2,6 (4aH)-dione] | 85.5 (≈ 269 µM) | – | 86.3 (≈ 271 µM) | – | – | – | – | 92.2 (≈ 290 µM) | – | – | 3.49 | 87.5 (≈ 275 µM) | 98.5 (≈ 309 µM) | – | 107 (≈ 337 µM) | – | 62.5 (≈ 196 µM) | 6.1 (≈ 19.2 µM)
4 | COc1cc(O)c2c(=O)oc3cc(O)c(Cl)c(C)c3c2c1 [Palmariol B (1), 2-chloro-3,7-dihydroxy-9-methoxy-1-methyl-6H-dibenzo[b,d]pyran-6-one] | 17.5 (≈ 57.1 µM) | – | 28.1 (≈ 91.7 µM) | – | – | – | – | 16.7 (≈ 54.6 µM) | – | – | 3.42 | 19.4 (≈ 63.1 µM) | 27.7 (≈ 90.2 µM) | – | 119 (≈ 387 µM) | – | – | –
5 | COC(=O)Nc1nc2ccccc2[nH]1 [carbendazim, reference compound] | – | – | – | – | – | – | – | – | – | 13 (≈ 68 µM) | – | – | – | – | – | – | – | –
6 | [H]/N=C(/N)N[C@H]1[C@H](O)[C@@H](O)[C@H](O[C@@H]2O[C@@H](C)[C@](O)(C=O)[C@H]2O[C@@H]2O[C@@H](CO)[C@H](O)[C@@H](O)[C@@H]2NC)[C@@H](N/C(N)=N\[H])[C@@H]1O [streptomycin sulfate, reference compound] | 7.19 | – | 6.79 | – | – | – | – | 8.34 | – | – | – | 6.34 | 8.35 | – | – | – | – | –
